How the values were obtained:
[1] = Rabbit glaucoma model (1% dexamethasone eye drops), intraocular pressure; format: in vivo, New Zealand white rabbit; conditions: one week; for Average intraocular pressure, Left eye: 3 times a day, two drops, 4 h after treatment; for IOP reduction rate: left eye vs right eye; for Average intraocular pressure, Right eye: right eye as control
Method: 1. Salidroside powder was dissolved in normal saline to prepare salidroside eye drops at the concentrations of 20 μM, 25 μM, 30 μM.
2. Fitly healthy, adult New Zealand white rabbit with body weight between 2.0 to 3.0 kg, consisting of equal numbers of male and female, were chosen for study. Rabbit glaucoma model was established by dosing the animals with 1% dexamethasone eye drops on both eyes 5 times a day for a total induction time of 3 weeks. Intraocular pressure was monitored starting from week 2. Glaucoma model was considered successfully established when intraocular pressure, measured at the same time of the day, was above 22 mmHg for a week. Glaucoma model was successful established on all 50 rabbits with the average intraocular pressure of 26.07±2.03 mmHg (n=100 eyes). Rabbits were randomly divided into 5 groups of 10: the normal control group, positive drug group (Travatan®, 0.004% travoprost eye drops), and three salidroside groups (20 μM, 25 μM, 30 μM salidroside).
Positive drug group was treated with Travatan® in the left eye, three times a day, two drops each time. Intraocular pressure was measured 4 hours after treatment. Treatment lasted for two weeks. The three salidroside groups were treated with salidroside eye drops three times a day, two drops each time. Intraocular pressure was measured 4 hours after treatment. Treatment lasted for two weeks. The normal control group received eye drops in both eyes three times a day, two drops each time. Intraocular pressure was measured 4 hours after receiving eye drops. Eye drops were administered for 2 weeks.
One week after the start of experiment, the average pressure for each eye after each measurement in each group is shown in Table 1.

[2] = test system: laminin (LN), collagen IV (Col-IV) and fibronectin (FN) mRNA in trabecular meshwork cells; assay: qRT-PCR of extracellular matrix expression in dexamethasone-induced normal human trabecular meshwork cells; format: cell-based
Method: Normal Trabecular Meshwork cells (NTM) were cultured with F12 containing 10% fetal bovine serum (FBS). When the normal human trabecular meshwork cells were 75%-80% confluent, cells were digested with pancreatic enzymes and planted into a 6-well plate with 2 mL culture media per well.
Normal human normal trabecular meshwork cells were used as a untreated control group. Normal human trabecular meshwork cells with dexamethasone added were used as the experimental control group. Normal human trabecular meshwork cells with dexamethasone and different concentrations of salidroside added were used as the experimental groups (The concentration of dexamethasone used in the experimental control group and the experimental groups was 10^−7 mol/L. The concentrations of salidroside were 1, 3, 10, 30, 100 μmol/L, respectively). The trabecular meshwork cells were cultured for 0, 3, 6, 12, 24, 48 h.
Primer sequences for laminin (LN), collagen IV (Col-IV) and fibronectin (FN) mRNA were designed. Messenger RNA levels of LN, Col-IV, and FN were detected with qRT-PCR. Anti-LN, anti-Col-IV, and anti-FN antibodies were used to detect protein expression of the trabecular meshwork extracellular matrix protein in immunocytochemistry.
FIGS. 1-3 show the effect of salidroside detected by the qRT-PCR on the extracellular matrix proteins of human trabecular meshwork induced by the dexamethasone. […]

[3] = Mouse glaucoma model (intravitreal TGF-β2 overexpression adenovirus vector), intraocular pressure; format: in vivo, Balb/cJ mice; conditions: 40 mg/kg intraperitoneal once daily
Method: 1. Salidroside powder was dissolved in normal saline to make 40 mg/kg salidroside solution. 2. Male Balb/cJ mice 8 to 12 weeks old and weighted about […] were used. The selected mice met the requirement of the first-level animal standards. Mice and feed were provided by the Experimental Animal Center of the Ninth People's Hospital, affiliated with Shanghai Jiaotong University School of Medicine. Vivarium temperature was controlled between 15 to 20° C., and relative humidity was 55 to 75%, with 12h light. Food and drinking water were on an ad libitum basis. Mice that met the inclusion criteria were selected: (1) no eye disease; (2) pupillary light reflexes in both eyes in response to direct and indirect light were normal. 4. Intraocular pressure in both the left and the right eye of each conscious mouse was measured and recorded. 5. Weight measurements of each mouse were taken. 4% chloral hydrate was injected to anaesthetize mice at a dose of 10 μL/g body weight; 6. Mouse glaucoma model: 3 μL TGF-β2 overexpression adenovirus vector (3×10^7 pfu/μL) was injected into the vitreous chamber to induce ocular hypertension. […] On the day of adenovirus vector intravitreal injection, mouse intraocular pressure was measured once. Intraocular pressure was measured again on the next day and subsequent selected days to avoid damage to the cornea caused by frequent measurement. […]

SMILES: OC[C@H]1O[C@@H](OCCc2ccc(O)cc2)[C@H](O)[C@@H](O)[C@@H]1O [Salidroside, 2-(4-HYDROXYPHENYL) ETHYL-BETA-D-GLUCOPYRANOSIDE]
- Average intraocular pressure, Left eye ([1]; 20 μM eye drops): 15.57 ± 1.52 mmHg
- IOP reduction rate ([1]; 20 μM eye drops): 30.98%
- Average intraocular pressure, Right eye ([1]; 20 μM group): 22.56 ± 1.72 mmHg
- Average intraocular pressure, Left eye ([1]; 25 μM eye drops): 15.07 ± 1.19 mmHg
- IOP reduction rate ([1]; 25 μM eye drops): 34.56%
- Average intraocular pressure, Right eye ([1]; 25 μM group): 23.03 ± 1.02 mmHg
- Average intraocular pressure, Left eye ([1]; 30 μM eye drops): 14.37 ± 1.54 mmHg
- IOP reduction rate ([1]; 30 μM eye drops): 37.19%
- Average intraocular pressure, Right eye ([1]; 30 μM group): 22.88 ± 1.09 mmHg
- average intraocular pressure in the left eye compared with the corresponding right eye as a control ([1]; P<0.01): significant lowered
- IOP-lowering effect compared with the Travatan group ([1]; salidroside groups 20, 25, 30 μM eye drops): better than that of the Travatan® group
- expression level of TGF beta, FN, COL-IV and LN ([2]; applicant's previous studies, dexamethasone-induced cells, after intervention of salidroside): decreases
- extracellular matrix proteins of the trabecular meshwork (FN, COL-IV, LN; qRT-PCR) ([2]; dexamethasone 10^-7 mol/L plus salidroside 1, 3, 10, 30, 100 μmol/L, normal human trabecular meshwork cells): reduced
- intraocular pressure vs glaucoma control group ([3]; salidroside intervention group (treated immediately after vector injection), 11th day after initiation): statistically significantly lowered
- intraocular pressure vs glaucoma control group ([3]; salidroside treatment group (treated after IOP increased and stabilized), 18th day after initiation): statistically significantly lowered
